Laboratory results reported in paper PMC4104029, “Mechanism of Action of Compound-13: An α1-Selective Small Molecule Activator of AMPK” (Chemistry & Biology, 2014).

Columns and labels:
[1] = tested on: isolated, full-length AMPKα1 and α2 subunits; experiment: Isolated AMPKα subunit activity assay; type: biochemical, human; conditions: C2 0–1000 nM, conditions as Figure 1B
Description: Supplemental Figure Legends:
Figure S1, related to Figures 1-3. Subunit composition of AMPK preparations used in this study. (A) Heterotrimeric AMPK complexes (10 ng) produced in both Sf9 (Sigma and Signalchem) and E.coli (in our laboratory) were analysed by Western blotting using isoform specific antibodies. Note that both the α2/α1-HOOK and α2/α1-LOOP chimeras are no longer recognised by the anti-α2 antibody as the epitope has been replaced (see Fig S4). (B) Heterotrimeric AMPK α2/α1 chimeric complexes expressed in E.coli (2 μg) were separated by SDS-PAGE and stained with Coomassie G-250. Arrows indicate the position of the […]
Figure S2, related to Figure 1. C2 has negligible effects on a panel of 138 protein kinases.
Kinase inhibition screen was performed by the International Centre for Kinase profiling (Dundee). Assays were performed in duplicate using 10 µM C2 and are representative of two independent screens. Results are shown in rank order as mean % activity compared with controls in the absence of compound ± SD. […]
Figure S3, related to Figure 2. […] Results are expressed as mean Pi incorporated in nmol.min-1.mg-1 ± SD. […] Results are expressed as fold increase in activity relative to controls in the absence of compound ± SD.
(E) C2 and AMP displace a GST-AMPKγ2 subunit fusion from ATP-γ-Sepharose. […] The presence of eluted AMPKγ2 was analysed by SDS-PAGE and staining with colloidal Coomassie. […]

WT and β2-KO hepatocytes = experiment: AMPK signaling, western blotting; type: cell-based, mouse; conditions: 1 hr; A769662 100 μM
Description: (§1) Figure 7 C13 Activates Both β1 and β2 Complexes in Mouse Hepatocytes (A) Hepatocytes from WT, AMPKβ1^−/−, and AMPKβ2^−/− mice were incubated with the indicated concentrations of C13 for 1 hr. A769662 (100 μM) was included as a positive control. Lysates were analyzed using western blotting with the indicated antibodies. (B) Mouse hepatocytes from the indicated genotypes were treated with the indicated concentrations of C13 and labeled with [^3H]acetate for 4 hr. Lipogenesis was estimated from the incorporation of acetate into total lipids. Results are expressed as the mean acetate incorporated in micromoles per gram-hour ± SD.

β1-KO hepatocytes = experiment: AMPK signaling, western blotting; type: cell-based, mouse; conditions: 1 hr; A769662 100 μM
Description: as §1

Row | Compound | effect on activity [1] | phosphorylation of Thr172 and ACC, as well as Raptor (WT and β2-KO hepatocytes) | stimulation of AMPK (Thr172 phosphorylation) (β1-KO hepatocytes)
1 | O=P(O)(O)c1ccc(-c2cc(O)on2)o1 [Compound C2, 5-(5-hydroxyl-isoxazol-3-yl)-furan-2-phosphonic acid] | no effect |  | 
2 | CC(C)C(=O)OCOP(=O)(OCOC(=O)C(C)C)c1ccc(C2=NOC(=O)C2)o1 [Compound C13] |  | robustly stimulated | modestly stimulated
